# Experimental data as given in ChEMBL document CHEMBL4706499, “PTG-0861: A novel HDAC6-selective inhibitor as a therapeutic strategy in acute myeloid leukaemia” (Eur J Med Chem, 2020).
# Legend:
# MV4-11 = assay: Cytotoxicity against human MV4-11 cells measured after 72 hrs by spectrophotometer method; format: functional, cell-based; conditions: MV4-11, 72 h
# [1] = Cytotoxicity against human MRC9 cells measured after 72 hrs by spectrophotometer method; format: cell-based; conditions: MRC9, 72 h
# Histone deacetylase 3 = Histone deacetylase 3 (Homo sapiens, UniProt O15379); assay: Inhibition of recombinant full length human HDAC3 expressed in SF9 baculovirus using FAM- labelled acetylated peptide as substrate measured by Electrophoretic mobility shift assay
# Chain of Histone deacetylase 3 (O15379 whole entry): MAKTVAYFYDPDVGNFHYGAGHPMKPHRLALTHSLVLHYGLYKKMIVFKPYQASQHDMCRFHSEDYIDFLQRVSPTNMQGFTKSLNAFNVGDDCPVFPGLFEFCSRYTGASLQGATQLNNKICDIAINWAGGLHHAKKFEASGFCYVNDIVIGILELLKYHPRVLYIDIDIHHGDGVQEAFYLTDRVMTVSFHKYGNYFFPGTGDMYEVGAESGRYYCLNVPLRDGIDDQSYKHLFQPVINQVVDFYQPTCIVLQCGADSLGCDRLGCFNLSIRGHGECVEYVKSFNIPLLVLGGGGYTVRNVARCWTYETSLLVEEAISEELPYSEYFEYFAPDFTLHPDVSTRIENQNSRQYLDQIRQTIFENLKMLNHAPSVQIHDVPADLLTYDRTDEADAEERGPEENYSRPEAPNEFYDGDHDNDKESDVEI
# [2] = molecular target: T1, Protein deacetylase HDAC6 (Homo sapiens, UniProt Q9UBN7); assay: Inhibition of recombinant full length human HDAC6 expressed in SF9 baculovirus using FAM- labelled acetylated peptide as substrate measured by Electrophoretic mobility shift assay
# T1 sequence (Q9UBN7 whole entry): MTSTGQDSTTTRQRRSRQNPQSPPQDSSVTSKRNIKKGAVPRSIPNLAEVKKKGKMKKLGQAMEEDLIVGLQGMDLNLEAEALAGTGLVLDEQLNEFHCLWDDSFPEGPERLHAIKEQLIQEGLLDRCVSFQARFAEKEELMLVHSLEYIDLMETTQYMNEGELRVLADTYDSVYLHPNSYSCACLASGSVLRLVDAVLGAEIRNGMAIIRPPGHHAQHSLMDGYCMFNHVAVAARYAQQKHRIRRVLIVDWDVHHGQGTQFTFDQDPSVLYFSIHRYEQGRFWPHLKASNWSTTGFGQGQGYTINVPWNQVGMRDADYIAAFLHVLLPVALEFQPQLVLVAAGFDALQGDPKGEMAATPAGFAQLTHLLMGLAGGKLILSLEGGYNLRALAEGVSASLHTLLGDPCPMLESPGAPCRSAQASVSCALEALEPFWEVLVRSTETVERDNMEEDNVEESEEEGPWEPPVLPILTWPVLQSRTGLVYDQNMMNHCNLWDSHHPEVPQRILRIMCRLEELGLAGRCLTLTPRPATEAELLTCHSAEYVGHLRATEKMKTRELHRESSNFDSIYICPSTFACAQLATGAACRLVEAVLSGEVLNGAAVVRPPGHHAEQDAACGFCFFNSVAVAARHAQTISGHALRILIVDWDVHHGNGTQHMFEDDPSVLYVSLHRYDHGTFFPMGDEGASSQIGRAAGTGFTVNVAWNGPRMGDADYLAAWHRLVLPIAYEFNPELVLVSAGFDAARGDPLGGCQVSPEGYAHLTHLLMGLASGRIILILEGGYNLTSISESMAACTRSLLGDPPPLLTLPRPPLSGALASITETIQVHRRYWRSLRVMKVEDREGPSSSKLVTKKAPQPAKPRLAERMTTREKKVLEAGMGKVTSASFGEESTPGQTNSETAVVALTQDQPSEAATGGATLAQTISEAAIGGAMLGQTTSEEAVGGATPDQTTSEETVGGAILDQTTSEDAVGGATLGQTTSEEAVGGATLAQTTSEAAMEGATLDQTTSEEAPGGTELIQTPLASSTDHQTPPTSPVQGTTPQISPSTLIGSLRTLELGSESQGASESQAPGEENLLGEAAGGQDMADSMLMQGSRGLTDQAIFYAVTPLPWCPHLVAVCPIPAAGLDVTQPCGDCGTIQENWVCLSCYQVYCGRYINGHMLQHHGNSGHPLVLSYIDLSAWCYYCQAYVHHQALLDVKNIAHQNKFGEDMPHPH
# Histone deacetylase 8 = molecular target: T2, Histone deacetylase 8 (Homo sapiens, UniProt Q9BY41); assay: Inhibition of recombinant full length human HDAC8 expressed in SF9 baculovirus using FAM- labelled acetylated peptide as substrate measured by Electrophoretic mobility shift assay
# T2 sequence (Q9BY41 whole entry): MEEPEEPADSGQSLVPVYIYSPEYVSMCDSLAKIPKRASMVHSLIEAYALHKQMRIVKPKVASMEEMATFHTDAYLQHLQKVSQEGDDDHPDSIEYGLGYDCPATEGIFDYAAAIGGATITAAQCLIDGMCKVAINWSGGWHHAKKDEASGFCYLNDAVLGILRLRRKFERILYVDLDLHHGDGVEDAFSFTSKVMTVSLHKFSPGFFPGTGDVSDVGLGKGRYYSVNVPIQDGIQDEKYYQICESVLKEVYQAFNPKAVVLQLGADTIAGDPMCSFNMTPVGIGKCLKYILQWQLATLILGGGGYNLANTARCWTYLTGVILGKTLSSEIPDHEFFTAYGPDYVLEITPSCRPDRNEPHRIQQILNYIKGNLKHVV
# Histone deacetylase 11 = molecular target: T3, Histone deacetylase 11 (Homo sapiens, UniProt Q96DB2); assay: Inhibition of recombinant full length human HDAC11 expressed in SF9 baculovirus using FAM- labelled acetylated peptide as substrate measured by Electrophoretic mobility shift assay
# T3 sequence (Q96DB2 whole entry): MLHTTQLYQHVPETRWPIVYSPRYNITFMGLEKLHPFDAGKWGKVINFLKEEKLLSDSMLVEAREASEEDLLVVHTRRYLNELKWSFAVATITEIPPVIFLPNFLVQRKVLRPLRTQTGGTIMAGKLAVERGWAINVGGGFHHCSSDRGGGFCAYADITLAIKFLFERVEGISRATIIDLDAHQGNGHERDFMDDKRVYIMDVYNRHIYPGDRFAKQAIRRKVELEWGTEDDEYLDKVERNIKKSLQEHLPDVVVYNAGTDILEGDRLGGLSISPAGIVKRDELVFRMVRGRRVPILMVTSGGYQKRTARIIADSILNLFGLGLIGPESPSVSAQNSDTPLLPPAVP
# [3] = Selectivity ratio of IC50 for full length recombinant human HDAC3 to IC50 for full length recombinant human HDAC6
Compound,IC50 (Histone deacetylase 3) [nM],IC50 [2] [nM],IC50 (Histone deacetylase 8) [nM],IC50 (Histone deacetylase 11) [nM],Ratio IC50 [3],IC50 (MV4-11) [nM],IC50 [1] [nM]
CN(Cc1ccc(C(=O)NO)cc1)C(=O)c1c(F)c(F)c(F)c(F)c1F,740,17.3,> 1000,> 1000,42.8,3730,> 25000
O=C(/C=C/c1ccc(CN(C(=O)c2c(F)c(F)c(F)c(F)c2F)C2CC2)cc1)NO,70,12,420,> 1000,5.83,760,> 25000
CC(C)(C)c1cccc(C(=O)Nc2ccc(C(=O)NO)cc2)c1,,,,,,3880,> 25000
O=C(NO)c1ccc(NC(=O)c2ccc(C(F)(F)F)cc2)cc1,243,22.6,220,> 1000,9.73,880,> 5000
O=C(NO)c1ccc(NC(=O)c2ccc(F)cc2)cc1,45.4,6.77,567,> 1000,6.7,3640,> 25000
O=C(NO)c1ccc(NC(=O)c2ccc(N3CCOCC3)cc2)cc1,> 1000,96.6,921,> 1000,> 9.53,17100,> 50000
CCN(C(=O)c1ccc(C(C)(C)C)cc1)c1ccc(C(=O)NO)cc1,> 1000,> 1000,281,> 1000,,8230,> 25000
O=C(NO)c1ccc(NC(=O)c2ccc(C3CCCCC3)cc2)cc1,159,26.6,208,411,5.98,530,> 25000
CC(C)(C)c1ccc(C(=O)N(Cc2ccc(C(=O)NO)cc2)C2CC2)cc1,323,20.9,269,> 1000,12.9,8570,> 25000
O=C(NO)c1ccc(CN(C(=O)c2c(F)c(F)c(F)c(F)c2F)C2CC2)cc1,> 1000,18.4,971,> 1000,> 52.8,7370,> 50000
CC(C)(C)c1ccc(NS(=O)(=O)c2ccc(C(=O)NO)cc2)cc1,34.4,17.5,9.4,223,,7160,> 50000
CC(C)(C)c1ccc(S(=O)(=O)NCc2ccc(C(=O)NO)cc2)cc1,297,41.9,622,> 1000,7.09,5030,> 25000
CC(C)N(Cc1ccc(C(=O)NO)cc1)C(=O)c1c(F)c(F)c(F)c(F)c1F,> 1000,14,876,> 1000,62.6,16400,> 15000

# Continued by falling IC50 (Histone deacetylase 3), values first:
IC50 (Histone deacetylase 3) [nM],IC50 [2] [nM],IC50 (Histone deacetylase 8) [nM],IC50 (Histone deacetylase 11) [nM],Ratio IC50 [3],Compound,IC50 (MV4-11) [nM],IC50 [1] [nM]
15.2,32.4,162,> 1000,,CC(C)(C)c1ccc(C(=O)NCc2ccc(C(=O)NO)cc2)cc1,570,> 25000
13,14,283,> 1000,,O=C(/C=C/c1ccc(CNC(=O)c2c(F)c(F)c(F)c(F)c2F)cc1)NO,320,> 25000
11.9,2.81,20.4,704,4.23,O=C(NO)c1ccc(NC(=O)c2ccc(C3CC3)cc2)cc1,1080,> 25000
10.9,10.4,43.9,447,1.05,CC(C)(C)c1ccc(NC(=O)c2ccc(C(=O)NO)cc2)cc1,1440,> 25000
10.9,1.6,21.6,> 1000,6.81,Cc1ccc(C(=O)Nc2ccc(C(=O)NO)cc2)cc1,2400,> 25000
3.74,13,74.3,> 1000,,CC(C)(C)c1ccc(CC(=O)Nc2ccc(C(=O)NO)cc2)cc1,340,> 15000
3.13,1.46,14,700,2.14,O=C(NO)c1ccc(NC(=O)c2c(F)c(F)c(F)c(F)c2F)cc1,1510,> 25000
2.25,2.01,13.3,44.2,1.12,CC(C)(C)c1ccc(S(=O)(=O)Nc2ccc(C(=O)NO)cc2)cc1,1180,> 25000
